Values joined by “and” are separate entries in the source; they are usually repeats but may differ in a detail not shown here. Equal values may be shown once. Read-outs that look alike come from different tables or passages of the source.
How the values were obtained:
[1] = test system: total anti-ovalbumin antibody in the serum; experiment: Primary anti-ovalbumin antibody production in vivo (ELISA), derivatives on Days 1–3; set-up: species or system C57BL/10 mice; conditions: 0.091 mmol ip Days 1–3; serum day 10; versus saline
Description: C57BL/10 mice are injected ip on Day 0 with ovalbumin followed by ip injections of saline, or one of three different butyrate derivatives on Days 1–3.
The butyrate derivatives are tested for their ability to suppress lymphocyte activity in vivo. C57BL/10 mice (5 mice/group) are injected ip with 100 μg of ovalbumin in conjunction with complete Freund's adjuvant on Day 0. In one experiment, the mice also receive one ip injection per day of the butyrate derivatives (0.091 mmol) on Days 1–3. Serum samples are obtained 10 days after the initial injection with ovalbumin, and tested for the presence of anti-ovalbumin antibodies using an ELISA. To perform the ELISA 96 well plates (Costar 3595) are first incubated with ovalbumin (100 μl/well of 100 μg/ml in PBS) overnight at 4° C. The plates are then washed 4 times with PBS and 0.5% Tween 20, blocked with 1% fetal calf serum for 30 minutes at 37° C., and washed again. Individual serum samples are added (diluted 1/100 or 1/1000 in PBS), and the plates are incubated for 2 hours at 20° C. The plates were next washed 7 times with PBS/Tween, and alkaline phosphate (AP)-labeled goat anti-mouse IgG, IgA, IgM (H+L) (Zymed) is added ( 1/1000) for 1 hour at 20° C. The plates are again washed 7 times with PBS/Tween, alkaline phosphate substrate (1 mg/ml) is added. After 10 minutes, Ig levels are quantified by an ELISA reader (absorbance 405 nm). The concentration of anti-ovalbumin is determined by comparison with a standard curve obtained using mouse anti-ovalbumin antibody (Sigma; St. Louis, Mo.). To measure isotype-specific anti-ovalbumin antibodies, serum samples (diluted at 1/300 or 1/1000) are incubated on the ovalbumin-coated plates as described above. […] Ig levels are presented as OD measurements.

[2] = test system: KLH-specific Th1 cells (clone D3); experiment: IL-2-induced proliferation of Th1 cells in the presence of butyrate derivatives; format: cell-based, C57BL/10 mice; conditions: for Suppression of IL-2-induced proliferation of Th1 cells: 10% Con A CM, various concentrations, proliferation after 2 days
Description: KLH-specific Th1 cells (clone D3) are stimulated with IL-2 (10% Con A CM) in the presence of different concentrations of n-butyrate or butyrate derivatives. In FIG. 2A Th1 cell proliferation is measured after 2 days. In FIG. 2B, the inhibitors are washed out after 24 hours, and the Th1 cells reincubated with fresh IL-2-containing medium. Proliferation of the Th1 cells restimulated with IL-2 in the absence of the inhibitors is measured after an additional 2 days. This experiment was repeated three times, and the proliferation data represents the means of the […] experiments.
The KLH-specific were developed in C57BL/10 mice, and characterized as Th1 clones based on their ability to secrete IL-2, but not IL-4. The Th1 clones were passed every 7–14 days using KLH, irradiated syngeneic spleen cells as antigen-presenting cells (APC), and IL-2-containing Con A CM using a previously described protocol (Gilbert et al., 1990).
To test the ability of the butyrate derivatives to suppress T cell activity […], Th1 cells [(5×10^4 cells/well in 96 well plates (Costar)] are stimulated with 10% IL-2-containing Con A CM in the presence of various concentrations of different butyrate derivatives. In some cultures, Th1 cell proliferation is measured after two days. In other cultures, the Th1 cells are washed after 24 hours, and fresh IL-2-containing medium is added. Proliferation is measured in the washed, IL-2-restimulated cultures after an additional 2 days.

[3] = humans; perfused at doses as high as 2 g/kg/day (Perrine et al., 1994); cited from earlier work
[4] = Daniel et al., 1989, cited from earlier work
[5] = test system: Anti-HGG antibody in serum; experiment: Primary anti-HGG antibody response in mice treated with n-butyrate; format: in vivo; set-up: Anti-HGG antibody in serum of individual mice: unit not given here; conditions: for Anti-HGG antibody in serum, group mean (x) / Anti-HGG antibody in serum of individual mice: ELISA day 9; for Anti-HGG antibody in serum, group mean (x): mean of 5 mice; for Anti-HGG antibody in serum of individual mice: HGG 100 μg ip day 0
Excerpt: Prior to testing the suppressive effects of butyrate prodrugs in vivo, the ability of n-butyrate to inhibit a primary antibody response in mice was examined.

[6] = Experiment 1, 5.5 mg n-butyrate ip days 2–5
[7] = Experiment 2, 5.5 mg n-butyrate ip days 2–6

## CCCC(=O)OCCN1CCN(C(=O)CCC)CC1.Cl [BEB, 2-(4-Butanoylpiperazinyl)ethyl butanoate hydrochloride]
[1]
  Effect on primary antigen-specific antibody production in vivo: significantly less antigen-specific antibody than control mice
[2]
  Suppression of IL-2-induced proliferation of Th1 cells: comparable to n-butyrate
[2]; washed after 24 hours, fresh IL-2 medium, additional 2 days
  Proliferation to IL-2 after compounds are washed out: regained their ability to proliferate to IL-2

## CCCC(=O)NCCN1CCOCC1.Cl [MEBA, 2-(4-Morpholinyl)ethyl butanamide hydrochloride]
[1]
  Effect on primary antigen-specific antibody production in vivo: unable to suppress
[2]
  Suppression of IL-2-induced proliferation of Th1 cells: does not suppress

## CCCC(=O)O.CCCC(=O)O.CCCC(=O)O.CCCC(=O)O.N=C(N)NCCC[C@H](N)C(=O)O.N=C(N)NCCC[C@H](N)C(=O)O.N=C(N)NCCC[C@H](N)C(=O)O [arginine salt of butyrate]
[3]
  Toxicity: nontoxic

## CCCC(=O)O [n-butyrate]
[4]
  half-life in vivo: six
[4]; listed as n-buytyrate
  half-life in vivo: 3 to 6 min
[5]; [6]
  Anti-HGG antibody in serum, group mean (x): x = 86 ± 72
  Anti-HGG antibody in serum of individual mice: 202 and 91 and 29 and 83 and 24
[5]; [7]
  Anti-HGG antibody in serum, group mean (x): x = 12 ± 11
  Anti-HGG antibody in serum of individual mice: 12 and 6 and 4 and 9 and 31
[5]; mice, n-butyrate ip, versus control
  Suppression of primary antibody response: 40–50%
